Measured values as given in ChEMBL document CHEMBL4513139, “CO-ADD screening of University of Strathclyde (UK) compounds”.
≈ marks a conversion by molar mass, not a printed value.

Legend:
Candida albicans = experiment: microbe, parasite or virus in culture; conditions: ATCC 90028, ASSAY_TEST Inhibition of Fungal Growth, detection method Absorption (OD530), plate type 384well, NBS, CORNING #3640
Description: Antifungal activity against Candida albicans ATCC 90028 (CO-ADD:FG_001); MIC in YNB media using NBS plates, by OD630

Escherichia coli = experiment: microbe, parasite or virus in culture; conditions: ATCC 25922, 18 h, ASSAY_TEST Inhibition of Bacterial Growth, detection method Absorption (OD600), MEDIA CAMHB, plate type 384well, NBS, CORNING #3640
Description: Antibacterial activity against Escherichia coli ATCC 25922 (CO-ADD:GN_001); MIC in CAMBH media using NBS plates, by OD(600)

Staphylococcus aureus = experiment: microbe, parasite or virus in culture; conditions: ATCC 43300, 18 h, ASSAY_TEST Inhibition of Bacterial Growth, detection method Absorption (OD600), MEDIA CAMHB, plate type 384well, NBS, CORNING #3640
Description: Antibacterial activity against Staphylococcus aureus MRSA ATCC 43300 (CO-ADD:GP_020); MIC in CAMBH media, using NBS plates, by OD(600)

Acinetobacter baumannii = experiment: microbe, parasite or virus in culture; conditions: ATCC 19606, 18 h, ASSAY_TEST Inhibition of Bacterial Growth, detection method Absorption (OD600), MEDIA CAMHB, plate type 384well, NBS, CORNING #3640
Description: Antibacterial activity against Acinetobacter baumannii ATCC 19606 (CO-ADD:GN_034); MIC in CAMBH media using NBS plates, by OD600

Pseudomonas aeruginosa = experiment: microbe, parasite or virus in culture; conditions: ATCC 27853, 18 h, ASSAY_TEST Inhibition of Bacterial Growth, detection method Absorption (OD600), MEDIA CAMHB, plate type 384well, NBS, CORNING #3640
Description: Antibacterial activity against Pseudomonas aeruginosa ATCC 27853 (CO-ADD:GN_042); MIC in CAMBH media using NBS plates, by OD(600)

HEK293 = experiment: cells; type: functional, Homo sapiens, ATCC CRL1573; conditions: Homo sapiens, ATCC CRL1573, HEK293; ASSAY_TEST Inhibition of Cell Viability; detection method Resazurin; Fluorescence (ex560/em590); MEDIA DMEM with 10% FBS; plate type 384well; TC; CORNING #3712; time 18 hr; read-out: CC50
Klebsiella pneumoniae = experiment: microbe, parasite or virus in culture; conditions: ATCC 700603, 18 h, ASSAY_TEST Inhibition of Bacterial Growth, detection method Absorption (OD600), MEDIA CAMHB, plate type 384well, NBS, CORNING #3640
Description: Antibacterial activity against Klebsiella pneumoniae MDR ATCC 70063 (CO-ADD:GN_003); MIC in CAMBH media using NBS plates, by OD(600)

Description for Cryptococcus neoformans: Antifungal activity against Cryptococcus neoformans H99 ATCC 208821 (CO-ADD:FG_002); MIC in YNB media using NBS plates, by Resazurin OD(600-570)

MIC (Candida albicans) [µg/mL] | MIC (Escherichia coli) [µg/mL] | MIC (Staphylococcus aureus) [µg/mL] | MIC (Acinetobacter baumannii) [µg/mL] | MIC (Pseudomonas aeruginosa) [µg/mL] | MIC (Cryptococcus neoformans) [µg/mL] | MIC (Klebsiella pneumoniae) [µg/mL] | Structure (SMILES) | CC50 (HEK293) [µg/mL]
> 32 | > 32 | > 32 | > 32 | > 32 | > 32 | > 32 | Cn1cc(NC(=O)c2ccc(/C=C/c3cnc4ccccc4c3)cc2)cc1C(=O)Nc1nc(C(=O)NCCN2CCOCC2)c(C2CCCCC2)s1.O=C(O)C(F)(F)F.O=C(O)C(F)(F)F | > 32
> 32 | > 32 | > 32 | > 32 | > 32 | > 32 | > 32 | Cn1cc(NC(=O)c2cc(NC(=O)c3cc4ccccc4cn3)cn2C)cc1C(=O)NCCN1CCOCC1.O=C(O)C(F)(F)F | > 32
> 32 | > 32 | > 32 | > 32 | > 32 | > 32 | > 32 | COc1cccc(/C=C/c2ccc(C(=O)Nc3cc(C(=O)Nc4cc(C(=O)NCCCN(C)C)n(C)c4)n(C)c3)cc2)c1.O=C(O)C(F)(F)F | 11.4
> 32 | > 32 | 16 | > 32 | > 32 | > 32 | > 32 | CC(C)c1sc(NC(=O)c2cc(NC(=O)c3cc(NC(=O)c4cc(NC=O)cn4C)cn3C)cn2C)nc1C(=O)NCCCN(C)C.O=C(O)C(F)(F)F | > 32
2 | > 32 | 1 | > 32 | > 32 | 1 | > 32 | CN(C)c1ccc(/C=C/c2ccc(C(=O)Nc3cc(C(=O)Nc4cc(C(=O)NCCN5CCOCC5)n(C)c4)n(C)c3)cn2)cc1.O=C(O)C(F)(F)F | 1.11
> 32 | > 32 | > 32 | > 32 | > 32 | > 32 | > 32 | CC(=O)Nc1cc(C(=O)Nc2cc(C(=O)NCCC(=N)N)n(C)c2)n(C)c1.O=C(O)C(F)(F)F | > 32
> 32 | > 32 | 1 | > 32 | > 32 | ≤ 0.25 | > 32 | CC(C)CCc1sc(NC(=O)c2cc(NC(=O)c3cc(NC(=N)c4cnc5ccccc5c4)cn3C)cn2C)nc1C(=O)NCCCN(C)C.O=C(O)C(F)(F)F.O=C(O)C(F)(F)F | 1.18
32 | > 32 | > 32 | > 32 | > 32 | 2 | > 32 | Cn1cc(NC(=O)c2ccc(/C=C/c3ccncc3)cc2)cc1C(=O)Nc1cc(C(=O)NCCN2CCOCC2)n(CCCN2CCN(Cc3cccc4ccccc34)CC2)c1.O=C(O)C(F)(F)F.O=C(O)C(F)(F)F.O=C(O)C(F)(F)F.O=C(O)C(F)(F)F | 2.03
> 32 | > 32 | 2 | > 32 | > 32 | 16 | > 32 | Cn1cc(NC(=O)c2ccc(/C=C/c3cnc4ccccc4c3)cc2)cc1C(=O)Nc1cc(C(=O)NCCN2CCOCC2)n(CCCN=[N+]=[N-])c1.O=C(O)C(F)(F)F.O=C(O)C(F)(F)F | 4.48
> 32 | > 32 | 16 (≈ 27.4 µM) | > 32 | > 32 | 16 (≈ 27.4 µM) | > 32 | CC(=O)Nc1cc(C(=O)Nc2cc(C(=O)Nc3nc(C(=O)NCCCN(C)C)c(CCC(C)C)s3)n(C)c2)n(C)c1 | > 32
> 32 | > 32 | > 32 | > 32 | > 32 | 16 | > 32 | COc1ccc(/C=C/c2ccc(C(=O)Nc3cc(C(=O)Nc4cc(C(=O)NCCN5CCCCC5)n(CCCc5ccccc5)c4)n(C)c3)cn2)cc1.O=C(O)C(F)(F)F.O=C(O)C(F)(F)F | > 32
> 32 | > 32 | > 32 | > 32 | > 32 | > 32 | > 32 | Cn1cc(NC(=O)c2cc(NC(=O)c3ccc(/C=C/c4ccc(F)cc4)cc3)cn2C)cc1C(=O)NCCN1CCOCC1.O=C(O)C(F)(F)F | > 32
1 (≈ 3.2 µM) | > 32 | > 32 | > 32 | > 32 | 2 (≈ 6.4 µM) | > 32 | Cc1ncc(Cn2cc(CCOS(C)(=O)=O)nn2)c(N)n1 | > 32
> 32 | > 32 | 8 | > 32 | > 32 | > 32 | > 32 | CC(C)CCc1sc(NC(=O)c2cc(NC(=O)c3cc(NC(=O)c4sc(N)nc4C(F)(F)F)cn3C)cn2C)nc1C(=O)NCCCN(C)C.O=C(O)C(F)(F)F | 2.48
> 32 | > 32 | > 32 | > 32 | > 32 | 32 | > 32 | CC(C)n1cc(NC(=O)c2cc(NC(=O)c3cc4ccccc4oc3=O)cn2C)cc1C(=O)Nc1cc(C(=O)NCCCN(C)C)n(C)c1.O=C(O)C(F)(F)F | > 32
> 32 | > 32 | > 32 | > 32 | > 32 | > 32 | > 32 | COCCOC1CCN(C(=O)c2cc(NC(=O)c3cc(NC(=O)c4ccc(/C=C/c5ccc(OC)cc5)nc4)cn3C)cn2C)CC1.O=S(=O)(O)O | 15.5
> 32 | > 32 | > 32 | > 32 | > 32 | 32 | > 32 | COc1cccc(/C=C/c2ccc(C(=O)Nc3cc(C(=O)Nc4cc(C(=O)NCCN5CCOCC5)n(CCCc5cn(CCc6ccccc6)nn5)c4)n(C)c3)cc2)c1.O=C(O)C(F)(F)F | > 32
> 32 | > 32 | 2 (≈ 2.92 µM) | > 32 | > 32 | > 32 | > 32 | COCCOC1CCN(CCNC(=O)c2cc(NC(=O)c3cc(NC(=O)c4ccc(/C=C/c5ccc(OC)cc5)nc4)cn3C)cn2C)CC1 | 3 (≈ 4.39 µM)
> 32 | > 32 | > 32 | > 32 | > 32 | > 32 | > 32 | COC(=O)c1ccc(C(=O)Nc2cc(C(=O)Nc3cc(C(=O)Nc4nc(C(=O)NCCCN(C)C)c(CCC(C)C)s4)n(C)c3)n(C)c2)cc1.O=C(O)C(F)(F)F | 2.72
> 32 | > 32 | > 32 | > 32 | > 32 | > 32 | > 32 | COc1ccc(/C=C/c2ccc(C(=O)Nc3cc(C(=O)Nc4nc(C(=O)NCCN5CCOCC5)c(CCc5ccccc5)s4)n(C)c3)cn2)cc1.O=C(O)C(F)(F)F.O=C(O)C(F)(F)F | > 32
> 32 | > 32 | > 32 | > 32 | > 32 | > 32 | > 32 | Cn1cc(NC(=O)c2cc(NC(=O)c3ccc(/C=C/c4cc5ccccc5nc4On4nnc5ccccc54)cc3)cn2C)cc1C(=O)NCCN1CCOCC1.O=C(O)C(F)(F)F | > 32
